123 compounds from a melting point compilation (Tetko et al.) can be followed below.

By melting point is commonly meant the temperature of the solid-liquid transition. `CC(=O)Nc1cc(-c2csc(N)n2)ccc1O` yielded a melting point of 218 to 222 °C. Consider `CC1CCc2c(sc3ncnc(Cl)c23)C1` (stereo not drawn), for which the melting point fell in the range of 119 to 121 °C.

For the compound `O=C(O)C1CCCCC1c1nc2ccccc2s1` (stereo not drawn), the melting point fell in the range of 168 to 170 °C.

The compound `CC(C)Cc1ccc(CCC(=O)O)cc1` came in with a melting point of 64 to 66 °C.

Compound `CCN1CCN(c2ccc(C#N)cn2)CC1` yielded a melting point of 69 to 71 °C. As to `OC1CCC(c2ccccc2)CC1` (stereo not drawn), the melting point was in the range of 117 to 119 °C. `Cc1ccc(C)c(N2N=C(C(=O)O)CCC2=O)c1` had a melting point of 149 to 151 °C. The value for `COC(=O)N(C)c1ccc([N+](=O)[O-])cc1` was 108 to 110 °C; that for `CC(=O)c1ccc(NS(C)(=O)=O)cc1` was 155 to 157 °C. `CCOC(=O)c1ccc(-n2ccnc2)c(N)c1`: the melting point is 89 to 93 °C.

`COc1ccc(/C=C/c2cc(C(=O)O)c3cc(Br)ccc3n2)cc1`: the melting point is 295 to 297 °C. Compound `c1ccc(-c2nc[nH]n2)cc1` gave a melting point of 117 to 119 °C. The value for `NC(=O)c1ccc(N)cc1F` was 148 to 150 °C. In turn, `Cc1cc(N)c2c(n1)CCCC2` registered a melting point of 121 to 123 °C.

`O=C(O)c1c[nH]nc1-c1ccc(F)cc1` came in with a melting point of 302 to 304 °C.

Consider `CS(=O)(=O)c1cc(C(=O)O)ccc1Cl`, for which the melting point was 216 to 218 °C. For the compound `Cc1c(CCl)cc(C(=O)O)cc1CCl`, the melting point fell in the range of 157 to 159 °C. `Nn1c(S)nnc1-c1ccccc1` showed a melting point of 193 to 195 °C. Take `Cn1cc(Br)cc1C(=O)NN`: the melting point was in the range of 169 to 171 °C.

In turn, `O=C(O)CSCc1ccc(F)cc1` came in with a melting point of 71 to 73 °C. `O=C(O)COc1ccc(Br)cc1Cl`: the melting point was 146 to 148 °C. The compound `CCN(CC)S(=O)(=O)c1ccc(Cl)c(C(=O)O)c1` came in with a melting point of 121 to 125 °C.

`Sc1ncnc2ccsc12` displayed a melting point of 271 to 273 °C.

Take `O=S1(=O)CCCN1c1ccc(Br)cc1`: the melting point is 108 to 110 °C. The compound `CN1C(=O)CNc2ccccc21` showed a melting point of 88 to 90 °C. `O=C1NCCc2ccc([N+](=O)[O-])cc21`: the melting point is 228 to 230 °C. The value for `Cc1cccc(NCCC(N)=O)c1` was 91 to 93 °C; that for `Cc1[nH]c2ccc(C(N)=O)cc2c1C` was 169 to 171 °C.

Compound `CCn1c(N)nc2ccccc21` came in with a melting point of 152 to 154 °C. `OCc1ccc(F)cc1Br` came in with a melting point of 69 to 71 °C. In turn, `CC(C)COc1ccc(C(=O)O)cn1` had a melting point of 105 to 107 °C. Compound `COc1ccnc(CO)c1` displayed a melting point of 70 to 72 °C.

`CC(=O)Nc1cccc2c1CCNC2` had a melting point of 141 to 143 °C. Take `O=[N+]([O-])c1cc(Cl)cnc1Br`: the melting point lay in the range of 75 to 77 °C.

`O=C(O)CSC(O)C(=O)c1ccccc1` (stereo not drawn) had a melting point of 113 to 115 °C. On to `O=C(NC1CC1)C(Cl)c1ccc(F)cc1` (stereo not drawn), for which the melting point lay within 135 to 137 °C. The value for `O=C(O)C1CCCN1C(=O)c1ccccc1OC(F)F` (stereo not drawn) was 124 to 126 °C. With `O=C1CCCN1c1ccccc1[N+](=O)[O-]`, the melting point lay within 77 to 79 °C. The value for `Cc1ccnc(Br)c1N` was 76 to 78 °C; that for `CN(C)CCN1C(=O)C=CC1=O` was 44 to 46 °C; that for `O=C(O)c1cccc(OCc2cccs2)c1` was 147 to 149 °C. Regarding `CS(=O)(=O)c1ccc(Br)c(C(=O)O)c1`, the melting point lay in the range of 203 to 205 °C. Regarding `O=C(O)Cc1cc2c(cc1[N+](=O)[O-])OCCO2`, the melting point was 219 to 221 °C. Regarding `O=C(O)CCc1cc(Br)ccc1F`, the melting point lay within 84 to 86 °C. Turning to `COc1cccc(C(N)CC(=O)O)c1OC` (stereo not drawn), the melting point was 206 to 208 °C. For the compound `Oc1ccc(-c2ncc[nH]2)cc1`, the melting point is 265 to 267 °C. `Cc1nn(-c2ccc(Cl)cc2)cc1C(=O)O` came in with a melting point of 224 to 226 °C. `O=Cc1c[nH]c2cc(Cl)ccc12`: the melting point was 209 to 211 °C. The value for `CN(CCC#N)c1ccc(C=O)cc1` was 70 to 74 °C; that for `CC1=C(C(=O)O)C(=O)OC1(C)C` was 111 to 113 °C. With `Cn1cc(CC(=O)O)c2ccccc21` the figure was 126 to 128 °C; with `O=C(O)c1ccc(NC(=O)c2ccccc2)cc1`, 297 to 299 °C.

`CC(C)Cn1cc(C(F)F)c(C(=O)O)n1` gave a melting point of 94 to 96 °C. The compound `Cc1cc(N)nn1C` registered a melting point of 49 to 51 °C. Regarding `Cc1cc2c(Cl)ncnc2s1`, the melting point was in the range of 79 to 81 °C. With `COC(=O)C(NS(C)(=O)=O)C(C)C` (stereo not drawn) the figure was 46 to 48 °C; with `Cc1ccc(S(N)(=O)=O)c(F)c1`, 138 to 140 °C. With `CCOc1ccc(OCC(=O)O)cc1` the figure was 125 to 130 °C; with `Cc1cc(C)nc(-n2nc(C(=O)O)cc2C)n1`, 189 to 191 °C; with `O=C(c1cc(Cl)ccc1[N+](=O)[O-])N1CCCC1`, 157 to 159 °C. `COC(=O)C(=O)CC(=O)c1ccc(C)cc1`: the melting point lay in the range of 86 to 88 °C.

On to `Cc1cn(-c2ncccc2F)nc1N`, for which the melting point lay in the range of 131 to 133 °C. The value for `O=S(=O)(Cl)c1ccc2c(Cl)ccc(Cl)c2c1` was 127 to 129 °C. The value for `CC(O)(c1ccc([N+](=O)[O-])cc1)C(F)(F)F` (stereo not drawn) was 86 to 88 °C. Compound `Cn1cnc(-c2ccc(F)cc2)c1N` had a melting point of 148 to 150 °C. The value for `c1cnc2c(c1)NCCO2` was 111 to 113 °C.

In the case of `Nc1nc(-c2ccccc2)c(-c2ccccc2)s1`, the melting point is 181 to 183 °C. With `COc1ccc(Cl)cc1-c1nnc(N)o1`, the melting point was in the range of 201 to 203 °C. Turning to `O=C1C(Br)CCCN1c1ccc(OC(F)F)cc1` (stereo not drawn), the melting point was 72 to 74 °C. `NC(=O)C(Cl)c1cccc(Br)c1` (stereo not drawn): the melting point fell in the range of 109 to 111 °C. `O=C(O)c1cn(-c2ccc(Br)cc2C(F)(F)F)nn1` showed a melting point of 139 to 141 °C. Compound `CS(=O)(=O)Cc1ccc(N)cc1F` gave a melting point of 152 to 154 °C. `CCC(C)C(NC1=NS(=O)(=O)c2ccccc21)C(=O)O` (stereo not drawn): the melting point was in the range of 203 to 205 °C. `Cc1ccccc1NC1=NC(C)(C)CS1` registered a melting point of 159 to 161 °C. Turning to `Cc1ncc(Br)n1C`, the melting point fell in the range of 92 to 94 °C. For the compound `CC(C)Cn1c(N)c(C=O)c(=O)n(C)c1=O`, the melting point lay in the range of 192 to 194 °C.

`CC(C)CC(N)c1nnn[nH]1` (stereo not drawn) registered a melting point of 272 to 274 °C. Regarding `CCOC(=O)C(C#N)=Cc1ccncc1`, the melting point was in the range of 101 to 103 °C.

`O=C(O)CCCn1ccc2cc(Cl)ccc21` showed a melting point of 79 to 81 °C. Take `CS(=O)(=O)N1CCC(C(=O)O)CC1`: the melting point lay within 159 to 161 °C. The value for `O=S1(=O)C=CC(Br)C1` (stereo not drawn) was 54 to 55 °C. With `Cc1cc(Cl)c(CCl)c(Cl)n1` the figure was 45 to 47 °C. For the compound `NC(=O)CNC(=O)c1cccc(N)c1`, the melting point is 170 to 172 °C. With `CCCc1ccc(-c2csc(N)n2)cc1` the figure was 115 to 117 °C; with `OC(CNCc1ccccc1)c1ccco1` (stereo not drawn), 68 to 70 °C; with `O=C(O)c1cnoc1-c1ccc(Cl)s1`, 191 to 193 °C. `O=C(O)c1cc(NS(=O)(=O)c2ccc(Cl)c([N+](=O)[O-])c2)ccc1O` gave a melting point of 239 to 241 °C. The compound `Cc1cc(Oc2ncccc2C#N)ccc1N` came in with a melting point of 158 to 160 °C.

`CC(C)C(=O)Nc1ccc(O)cc1`: the melting point fell in the range of 158 to 160 °C. `NCc1cccc(CN2CCCC(C(N)=O)C2)c1` (stereo not drawn) showed a melting point of 104 to 106 °C. Regarding `Cc1cc(C#N)ccc1S(=O)(=O)Cl`, the melting point was in the range of 64 to 66 °C.

As for `O=C(CCl)Nc1nnc(C2CC2)o1`, the melting point lay in the range of 148 to 150 °C. On to `CC(C)(C)c1ccc(CCC(=O)O)cc1`, for which the melting point lay in the range of 105 to 107 °C. With `Cc1cccc(C(C)C)c1NC(=O)C(C)Cl` (stereo not drawn) the figure was 126 to 128 °C. The value for `CCOC(=O)c1cc(C)nc2onc(C)c12` was 64 to 66 °C; that for `O=C(O)CSCc1coc(-c2ccccc2)n1` was 124 to 126 °C; that for `CC(C)(C)OC(=O)NCCCN` was 22 to 24 °C. Compound `Nc1ccc(-c2ncno2)cc1` displayed a melting point of 99 to 101 °C. The value for `CC(C)(C)OC(=O)N1CCc2c(N)cccc2C1` was 122 to 124 °C; that for `CC(N)c1ccc(NC(=O)NC2CC2)cc1` (stereo not drawn) was 142 to 144 °C; that for `O=C(O)CN1C(=O)c2ccc(Br)cc2C1=O` was 204 to 206 °C.

The compound `NS(=O)(=O)c1ccc(Cl)nc1Cl` yielded a melting point of 189 to 191 °C. `CCC(=O)c1ccc(OC(F)F)cc1` showed a melting point of 39 to 43 °C. The compound `CC(O)c1cn(CC(=O)O)nn1` (stereo not drawn) returned a melting point of 134 to 136 °C. The compound `CCOC(=O)c1cc2cc(N)ccc2s1` had a melting point of 89 to 91 °C. `CNC(=O)CS(=O)(=O)c1ccc(C(=O)O)cc1` registered a melting point of 249 to 251 °C. Consider `CC1=CC(C)=NS(=O)(=O)N1`, for which the melting point was 119 to 121 °C. The compound `CC(=O)Oc1cccc2ccc(O)nc12` returned a melting point of 251 to 253 °C. The compound `O=C(O)c1cc([N+](=O)[O-])ccc1SC1CCCC1` registered a melting point of 203 to 205 °C. Regarding `COc1ccc(NS(=O)(=O)c2ccc(N3CCCC3)c(N)c2)cc1`, the melting point fell in the range of 40 to 42 °C. The compound `CN(C(=O)c1ccc(N)cc1)C1CCCCC1` gave a melting point of 176 to 178 °C. Compound `CCc1nn2c(=O)cc(CCl)nc2s1` returned a melting point of 97 to 99 °C.

The compound `CC(C)(C)n1ncc(C(=O)O)c1C(F)(F)F` came in with a melting point of 110 to 112 °C. `Cn1cnc(S(=O)(=O)Cl)c1Cl`: the melting point was in the range of 54 to 56 °C. Compound `COC(=O)c1ccc(C(Br)Br)cc1` gave a melting point of 42 to 45 °C.

`OC1C2CCCC1CN(Cc1ccccc1)C2` (stereo not drawn) yielded a melting point of 88 to 90 °C. With `COc1ccccc1-n1cc(-c2ccc(Cl)cc2Cl)nc1S` the figure was 244 to 246 °C. The compound `N#CCc1ccc(OCC2CO2)cc1` (stereo not drawn) returned a melting point of 52 to 54 °C. `O=C(Cc1ccc(O)cc1)NCCO`: the melting point was 134 to 136 °C. Regarding `CC1Oc2ccc(C(=O)CBr)cc2NC1=O` (stereo not drawn), the melting point was in the range of 147 to 149 °C. Take `NC(C(=O)O)(c1cccc(F)c1)C(F)(F)F` (stereo not drawn): the melting point fell in the range of 131 to 133 °C. Turning to `COc1ccc(C(=O)C(C)Br)cc1OC` (stereo not drawn), the melting point lay within 83 to 85 °C. With `O=C(O)CCOC1CCOCC1`, the melting point was 54 to 56 °C.
